For data set [1], the target named is T1, angiotensin I-converting enzyme (ACE) (Oryctolagus cuniculus, UniProt P12822).
T1 construct: purchased Sigma A6778
T1 sequence (P12822 34-1310): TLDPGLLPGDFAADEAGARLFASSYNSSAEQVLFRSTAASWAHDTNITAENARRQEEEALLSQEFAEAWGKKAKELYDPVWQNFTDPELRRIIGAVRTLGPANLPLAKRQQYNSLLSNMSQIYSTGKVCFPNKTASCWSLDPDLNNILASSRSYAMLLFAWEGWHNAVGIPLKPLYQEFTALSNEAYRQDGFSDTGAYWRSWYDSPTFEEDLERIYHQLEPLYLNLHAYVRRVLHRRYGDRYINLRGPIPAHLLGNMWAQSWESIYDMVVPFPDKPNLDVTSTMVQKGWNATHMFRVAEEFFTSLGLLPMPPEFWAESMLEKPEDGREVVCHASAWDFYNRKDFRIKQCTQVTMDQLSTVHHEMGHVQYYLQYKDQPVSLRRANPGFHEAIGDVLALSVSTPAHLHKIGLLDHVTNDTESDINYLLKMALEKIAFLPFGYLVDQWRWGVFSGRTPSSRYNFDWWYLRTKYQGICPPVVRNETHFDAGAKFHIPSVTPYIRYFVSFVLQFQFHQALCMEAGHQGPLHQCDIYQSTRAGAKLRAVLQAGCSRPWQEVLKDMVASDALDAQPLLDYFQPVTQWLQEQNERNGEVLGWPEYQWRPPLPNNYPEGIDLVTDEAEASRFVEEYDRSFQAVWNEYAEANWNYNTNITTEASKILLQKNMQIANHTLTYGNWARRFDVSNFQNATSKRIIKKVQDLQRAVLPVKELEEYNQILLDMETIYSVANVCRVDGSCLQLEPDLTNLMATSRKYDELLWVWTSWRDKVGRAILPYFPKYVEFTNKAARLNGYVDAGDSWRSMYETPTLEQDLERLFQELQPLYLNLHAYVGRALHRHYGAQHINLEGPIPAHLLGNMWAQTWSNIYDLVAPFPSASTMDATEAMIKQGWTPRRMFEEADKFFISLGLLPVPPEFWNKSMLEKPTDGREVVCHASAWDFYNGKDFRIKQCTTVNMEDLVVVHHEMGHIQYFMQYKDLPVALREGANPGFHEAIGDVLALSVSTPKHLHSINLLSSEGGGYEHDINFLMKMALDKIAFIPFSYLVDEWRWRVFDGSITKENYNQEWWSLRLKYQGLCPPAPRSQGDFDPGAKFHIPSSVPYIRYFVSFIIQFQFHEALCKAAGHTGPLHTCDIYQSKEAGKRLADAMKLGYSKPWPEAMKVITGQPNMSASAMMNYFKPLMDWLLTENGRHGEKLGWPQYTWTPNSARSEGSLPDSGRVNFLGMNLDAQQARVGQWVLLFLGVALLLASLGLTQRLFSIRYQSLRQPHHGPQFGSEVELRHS
Briefly: biochemical. The conditions noted are these: 15 min preincubation at room temperature; substrate Abz-FRK(Dnp)-P-OH; 37 °C.

The target in another data set is T2, trypsin (Sus scrofa, UniProt P00761).
T2 construct: purchased Promega V5111
The class given is biochemical.

In the next data set the target is T3, chymotrypsin (Bos taurus, UniProt P00766).
T3 construct: purchased Promega V1061
Type of data set: biochemical.

Data set [2] deals with T4, main protease from SARS-CoV-2 virus (Mpro) (Severe acute respiratory syndrome coronavirus 2, UniProt P0DTD1).
T4 construct: Cayman chemical) was used; purchased Cayman chemical 701960
Type of data set: biochemical.

Molecules are shown by their SMILES. Where a SMILES comes first, the peptide text is derived from it. The star is where a group is joined. For = O=C*

T2 sequence (P00761 9-231): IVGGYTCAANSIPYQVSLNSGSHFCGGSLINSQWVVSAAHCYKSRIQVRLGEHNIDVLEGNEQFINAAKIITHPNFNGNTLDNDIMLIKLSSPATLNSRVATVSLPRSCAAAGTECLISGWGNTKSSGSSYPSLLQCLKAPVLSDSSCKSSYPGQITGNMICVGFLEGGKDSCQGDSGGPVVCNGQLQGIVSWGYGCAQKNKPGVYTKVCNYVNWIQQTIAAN

For the molecule `CSCC[C@H](NC=O)C(=O)N[C@@H](CCCNC(=N)N)C(=O)N[C@@H](CCSC)C(=O)NCC(=O)N[C@@H](CCC(=O)O)C(=O)NCC(=O)N[C@@H](Cc1ccc(O)cc1)C(=O)N[C@@H](Cc1c[nH]c2ccccc12)C(=O)N[C@@H](Cc1ccc(O)cc1)C(=O)N[C@@H](CC(=O)O)C(=O)O` [L7W] (For-MRMGEGYWYD-OH), the “conversion by ApyO” value with cytochrome P450 ApyO is reported as ~ 39%.

As to `CSCC[C@H](NC=O)C(=O)N[C@@H](CCCNC(=N)N)C(=O)N[C@@H](CCSC)C(=O)NCC(=O)N[C@@H](CCC(=O)O)C(=O)NCC(=O)N[C@@H](Cc1ccc(O)cc1)C(=O)N[C@@H](Cc1ccc(O)cc1)C(=O)N[C@@H](Cc1ccc(O)cc1)C(=O)N[C@@H](CC(=O)O)C(=O)O` [L7Y] (For-MRMGEGYYYD-OH), the “conversion by ApyO” value in the data set with cytochrome P450 ApyO is listed as “near quantitative”.

As a reminder, the IC50 is the point on the concentration scale where inhibition reaches its midpoint. Higher therefore signals a need for much substance. For the molecule `NCC(=O)N[C@H]1Cc2ccc(O)c(c2)Oc2ccc(cc2)C[C@@H](C(=O)N[C@@H](CC(=O)O)C(=O)O)NC(=O)[C@H](Cc2ccc(O)cc2)NC1=O` (single isomer, unassigned) [L7Y isomer-2], the IC50 in data set [1] amounted to 1.1 µM.

For `CSCC[C@H](NC=O)C(=O)N[C@@H](CCCNC(=N)N)C(=O)N[C@@H](CCSC)C(=O)NCC(=O)N[C@@H](CCC(=O)O)C(=O)NCC(=O)N[C@@H](Cc1ccc(O)cc1)C(=O)N[C@H](C(=O)N[C@@H](Cc1ccc(O)cc1)C(=O)N[C@@H](CC(=O)O)C(=O)O)C(C)C` [L7V] (For-MRMGEGYVYD-OH), the “conversion by ApyO” value with cytochrome P450 ApyO is ~ 57%.

Take `CSCC[C@H](NC=O)C(=O)N[C@@H](CCCCN)C(=O)N[C@@H](CCSC)C(=O)NCC(=O)N[C@@H](CCC(=O)O)C(=O)NCC(=O)N[C@@H](Cc1ccc(O)cc1)C(=O)N[C@@H](CC(C)C)C(=O)N[C@@H](Cc1ccc(O)cc1)C(=O)N[C@@H](CC(=O)O)C(=O)O` [R1K] (For-MKMGEGYLYD-OH): the “conversion by ApyO” value in the data set on cytochrome P450 ApyO was ~ 8%.

With `CC(C)C[C@@H]1NC(=O)[C@@H](NC(=O)CN)Cc2ccc(O)c(c2)-c2cc(ccc2O)C[C@@H](C(=O)N[C@@H](C)C(=O)C(=O)O)NC1=O` [desmethylaminopyruvatide A], at trypsin, the inhibition of trypsin result is given as “No inhibition”. Moreover, at chymotrypsin, the inhibition of chymotrypsin result is given as “No inhibition”. For the same molecule, the “inhibition of Mpro” value in data set [2] is listed as “No inhibition”.

For the molecule `CC[C@H](C)[C@H](NC(=O)[C@H](Cc1ccc(O)cc1)NC(=O)CNC(=O)[C@H](CCC(=O)O)NC(=O)CNC(=O)[C@H](CCSC)NC(=O)[C@H](CCCNC(=N)N)NC(=O)[C@H](CCSC)NC=O)C(=O)N[C@@H](Cc1ccc(O)cc1)C(=O)N[C@@H](CC(=O)O)C(=O)O` [L7I] (For-MRMGEGYIYD-OH), in the data set with cytochrome P450 ApyO, the “conversion by ApyO” value is ~ 60%.

As to `CSCC[C@H](NC=O)C(=O)N[C@@H](CCCNC(=N)N)C(=O)N[C@@H](CCSC)C(=O)NCC(=O)N[C@@H](CCC(=O)O)C(=O)NCC(=O)N[C@@H](Cc1ccc(O)cc1)C(=O)N[C@H](C(=O)N[C@@H](Cc1ccc(O)cc1)C(=O)N[C@@H](CC(=O)O)C(=O)O)[C@@H](C)O` [L7T] (For-MRMGEGYTYD-OH), the “conversion by ApyO” value with cytochrome P450 ApyO is on record as ~ 3%.

Regarding `CSCC[C@H](NC=O)C(=O)N[C@@H](CCCNC(=N)N)C(=O)N[C@@H](CCSC)C(=O)NCC(=O)N[C@@H](CCC(=O)O)C(=O)NCC(=O)N[C@@H](Cc1ccc(O)cc1)C(=O)N[C@@H](Cc1ccccc1)C(=O)N[C@@H](Cc1ccc(O)cc1)C(=O)N[C@@H](CC(=O)O)C(=O)O` [L7F] (For-MRMGEGYFYD-OH), the “conversion by ApyO” value in the data set with cytochrome P450 ApyO was ~ 8%.

For the molecule `CSCC[C@H](NC=O)C(=O)N[C@@H](CCCNC(=N)N)C(=O)N[C@@H](CCSC)C(=O)NCC(=O)N[C@@H](CCC(=O)O)C(=O)NCC(=O)N[C@@H](Cc1ccc(O)cc1)C(=O)NCC(=O)N[C@@H](Cc1ccc(O)cc1)C(=O)N[C@@H](CC(=O)O)C(=O)O` [L7G] (For-MRMGEGYGYD-OH), the “conversion by ApyO” value with cytochrome P450 ApyO is reported as ~ 1%.

As to `CSCC[C@H](NC=O)C(=O)N[C@@H](CCCNC(=N)N)C(=O)N[C@@H](CCSC)C(=O)NCC(=O)N[C@@H](CCC(=O)O)C(=O)NCC(=O)N[C@@H](Cc1ccc(O)cc1)C(=O)N[C@@H](CC(C)C)C(=O)N[C@@H](Cc1ccc(O)cc1)C(=O)N[C@@H](CC(=O)O)C(=O)O` [ApyAct, MRMGEGYLYD] (For-MRMGEGYLYD-OH), the “conversion by ApyO” value in the data set with cytochrome P450 ApyO was “about 70%”.

Source of the values: publication doi:10.64898/2026.05.07.723658, “Substrate-dependent crosslinking by the cytochrome P450 from aminopyruvatide biosynthesis” (bioRxiv, 2026).
